Source: patent publication US9745325B2, “Fused heterocyclic compound” (Takeda Pharmaceutical Company Limited, priority 2014, dated 2017)

Experiments:
[1] = target: T1, CDK8/CycC (Homo sapiens, UniProt P49336); experiment: CDK8 inhibitory activity (Kinase Tracer-236 / Eu-anti-GST fluorescence assay); assay type: binding; parameters: Percent inhibition of CDK8 activity (%): concentration or dose not given beside the values; conditions: test compound concentration given as '1 1.1.1\4' [sic]
T1 construct: purchased Carna Biosciences
Procedure, shortened: (§1)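 Tracer-displacement TR-FRET binding assay: compound with kinase, Eu-cryptate anti-GST antibody and 60 nM Kinase Tracer-236 (pre-dilution level), 1 h at room temperature; ex 320 nm, em 615/665 nm. Percent inhibition is relative to no-compound control and a 10 μM control-compound blank.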

[2] = target: T2, CDC2L6/CycC (CDK19) (Homo sapiens, UniProt Q9BWU1); experiment: CDK19 inhibitory activity (Kinase Tracer-236 / Eu-anti-GST fluorescence assay); assay type: binding; parameters: Percent inhibition of CDK19 activity (%): concentration or dose not given beside the values; conditions: test compound concentration given as '1 1.1.1\4' [sic]
T2 construct: purchased Carna Biosciences Inc
Procedure, shortened: as §1

[3] = tested on: human multiple myeloma RPMI8226 cells; experiment: Inhibitory activity against human multiple myeloma RPMI8226 cell growth (CellTiter-Glo); assay type: cell-based; conditions: 1 μM test compound, cultured for 8 days; for inhibition at 1 µM: Homo sapiens, RPMI-8226, 192 h, read-out: Percent inhibition of RPMI8226 cell growth (%); for Percent inhibition of RPMI8226 cell growth (%): 1 µM
Procedure, shortened: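 RPMI8226 cells (300/well) cultured 1 day at 37 °C, 5% CO2, then given compound at 1 μM for 8 days. ATP luminescence (CellTiter-Glo) read; percent inhibition relative to 0.1% DMSO wells.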

[4] = tested on: SW480 human colorectal cancer cells; experiment: Antitumor efficacy in mice bearing SW480 human colorectal cancer cells; assay type: in vivo, BALB/c female nude mice; conditions: oral, 14 days
Experimental: The compound of the present invention was evaluated for its antitumor efficacy in mice bearing cancer derived from SW480 human colorectal cancer cells by the following method.
SW480 human colorectal cancer cells were transplanted into 6- to 7-week-old BALB/c female nude mice (CLEA Japan) by subcutaneous injection of 2.0×10^6 cells per mouse. At 7 to 14 days after the transplantation, the size of the engrafted tumor was measured, and the tumor volume was calculated according to the following formula. Tumor volume=major axis×minor axis×minor axis×(½)
Test subjects having an engrafted tumor with a tumor volume of approximately 100 mm^3 were selected and used in the experiment (6 subjects per group). A suspension of each test compound in a 0.5% methylcellulose solution (Wako Pure Chemical Industries) was orally administered to the mice for 14 days at the dose (mg/kg, indicating the amount per dose) and the number of doses shown in Table 4. On the day before the start of the administration and the day before the completion of the administration, the tumor size was measured, and the tumor volume was calculated.
Percent tumor growth (T/C (%)) of the test compound administration group relative to the control administration group was calculated according to the following formula. T/C (%)=(tumor volume of the test compound administration group after the completion of the administration−tumor volume of the test compound administration group at the day before the start of the administration)/(tumor volume of the control administration group after the completion of the administration−tumor volume of the control administration group at the day before the start of the administration))×100

T2 sequence (Q9BWU1 whole entry): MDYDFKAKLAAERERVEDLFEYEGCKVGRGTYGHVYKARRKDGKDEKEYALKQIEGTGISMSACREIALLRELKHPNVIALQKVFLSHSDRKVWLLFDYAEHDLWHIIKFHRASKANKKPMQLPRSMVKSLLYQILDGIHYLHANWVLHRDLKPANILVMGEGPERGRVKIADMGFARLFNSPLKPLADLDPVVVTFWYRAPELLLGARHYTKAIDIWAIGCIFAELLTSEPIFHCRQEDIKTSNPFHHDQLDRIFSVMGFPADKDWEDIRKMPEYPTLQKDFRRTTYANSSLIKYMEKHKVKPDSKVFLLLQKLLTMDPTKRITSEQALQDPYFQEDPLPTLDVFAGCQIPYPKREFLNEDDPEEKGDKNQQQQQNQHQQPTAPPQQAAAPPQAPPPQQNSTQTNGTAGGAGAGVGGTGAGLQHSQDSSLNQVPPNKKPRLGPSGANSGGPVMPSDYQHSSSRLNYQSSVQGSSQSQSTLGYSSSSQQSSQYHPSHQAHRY
T2 sequence (P24863 whole entry partner): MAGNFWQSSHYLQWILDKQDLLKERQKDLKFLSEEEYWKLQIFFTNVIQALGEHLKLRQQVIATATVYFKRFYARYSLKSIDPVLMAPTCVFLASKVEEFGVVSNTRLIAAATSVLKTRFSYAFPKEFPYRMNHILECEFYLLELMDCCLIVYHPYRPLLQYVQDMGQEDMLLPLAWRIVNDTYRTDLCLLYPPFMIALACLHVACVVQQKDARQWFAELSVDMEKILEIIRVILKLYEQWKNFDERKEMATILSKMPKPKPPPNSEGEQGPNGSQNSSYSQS
T1 sequence (P49336 whole entry): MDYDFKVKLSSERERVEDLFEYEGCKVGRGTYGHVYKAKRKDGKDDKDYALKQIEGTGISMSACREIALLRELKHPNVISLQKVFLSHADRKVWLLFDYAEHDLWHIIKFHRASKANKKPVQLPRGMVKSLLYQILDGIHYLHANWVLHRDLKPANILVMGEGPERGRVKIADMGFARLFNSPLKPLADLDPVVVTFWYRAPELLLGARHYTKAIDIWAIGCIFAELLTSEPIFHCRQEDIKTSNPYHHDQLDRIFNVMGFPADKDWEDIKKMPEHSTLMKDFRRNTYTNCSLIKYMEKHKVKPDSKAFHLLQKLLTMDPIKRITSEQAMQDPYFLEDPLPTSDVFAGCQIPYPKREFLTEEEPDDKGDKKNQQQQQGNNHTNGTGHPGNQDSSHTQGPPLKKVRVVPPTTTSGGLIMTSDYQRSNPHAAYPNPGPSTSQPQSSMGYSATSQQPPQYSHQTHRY
T1 sequence (P24863 whole entry partner): as the sequence (P24863 whole entry partner) above

| SMILES | Percent inhibition of CDK8 activity (%) [1] [%] | Percent inhibition of CDK19 activity (%) [2] [%] | inhibition at 1 µM [3] [%] | T/C (%) ([4]; 5 mg/kg, 1 dose per day) | T/C (%) ([4]; 15 mg/kg, 1 dose per day) | T/C (%) ([4]; 10 mg/kg, 1 dose per day) | T/C (%) ([4]; 15 mg/kg, 2 doses per day) | Percent inhibition of RPMI8226 cell growth (%) [3] [%] |
| --- | --- | --- | --- | --- | --- | --- | --- | --- |
| NC(=O)c1ccc(Oc2sc(C(N)=O)c3c2-c2sncc2CC3)cn1 [Example 13, 8-((6-Carbamoylpyridin-3-yl)oxy)-4,5-dihydrothieno[3,4-g][1,2]benzothiazole-6-carboxamide] | 97 | 98 | 69 | – | 50 | – | – | – |
| Cc1nc(C(=O)NCC(C)(C)O)ccc1Oc1sc(C(N)=O)c2c1-c1sncc1CC2 [Example 24, 8-((6-((2-Hydroxy-2-methylpropyl)carbamoyl)-2-methylpyridin-3-yl)oxy)-4,5-dihydrothieno[3,4-g][1,2]benzothiazole-6-carboxamide] | 102 | 99 | 64 | – | – | 32 | – | – |
| COCC(=O)Nc1ccc(Oc2sc(C(N)=O)c3c2-c2sncc2CC3)c(C)n1 [Example 127, 8-((6-((Methoxyacetyl)amino)-2-methylpyridin-3-yl)oxy)-4,5-dihydrothieno[3,4-g][1,2]benzothiazole-6-carboxamide] | 106 | 100 | 65 | – | – | – | – | – |
| CC(=O)Nc1ccc(Oc2sc(C(N)=O)c3c2-c2sncc2CC3)c(C)n1 [Example 128, 8-((6-Acetamido-2-methylpyridin-3-yl)oxy)-4,5-dihydrothieno[3,4-g][1,2] benzothiazole-6-carboxamide] | 98 | 102 | 70 | – | – | – | – | – |
| CNc1ccc(Oc2sc(C(N)=O)c3c2-c2sncc2CC3)cn1 [Example 129, 8-((6-(Methylamino)pyridin-3-yl)oxy)-4,5-dihydrothieno[3,4-g][1,2] benzothiazole-6-carboxamide] | 100 | 98 | 66 | – | – | – | – | – |
| NC(=O)c1sc(Oc2ccc(NC(=O)C3CC3)nc2)c2c1CCc1cnsc1-2 [Example 130, 8-((6-((Cyclopropylcarbonyl)amino)pyridin-3-yl)oxy)-4,5-dihydrothieno [3,4-g][1,2]benzothiazole-6-carboxamide] | 101 | 99 | 66 | – | – | – | – | – |
| NC(=O)c1sc(Oc2cccnc2)c2c1CCc1cnsc1-2 [Example 132, 8-(Pyridin-3-yloxy)-4,5-dihydrothieno [3,4-g][1,2]benzothiazole-6-carboxamide] | 102 | 97 | 61 | – | – | – | – | – |

More lines, main results first:

| Percent inhibition of CDK8 activity (%) [1] [%] | Percent inhibition of CDK19 activity (%) [2] [%] | SMILES | inhibition at 1 µM [3] [%] | T/C (%) ([4]; 5 mg/kg, 1 dose per day) | T/C (%) ([4]; 15 mg/kg, 1 dose per day) | T/C (%) ([4]; 10 mg/kg, 1 dose per day) | T/C (%) ([4]; 15 mg/kg, 2 doses per day) | Percent inhibition of RPMI8226 cell growth (%) [3] [%] |
| --- | --- | --- | --- | --- | --- | --- | --- | --- |
| 97 | 98 | Cc1c(Oc2sc(C(N)=O)c3c2-c2sncc2CC3)ccc[n+]1[O-] [Example 9, 8-((2-Methyl-1-oxidopyridin-3-yl)oxy)-4,5-dihydrothieno[3,4-g][1,2]benzothiazole-6-carboxamide] | 63 | 30 | – | – | – | – |
| 103 | 100 | COCCNC(=O)c1ccc(Oc2sc(C(N)=O)c3c2-c2sncc2CC3)cn1 [Example 18, 8-((6-((2-Methoxyethyl)carbamoyl)pyridin-3-yl)oxy)-4,5-dihydrothieno[3,4-g][1,2]benzothiazole-6-carboxamide] | 63 | – | – | 30 | – | – |
| 107 | 100 | Cc1nn(C)c(C)c1Oc1sc(C(N)=O)c2c1-c1sncc1CC2 [Example 32, 8-((1,3,5-Trimethyl-1H-pyrazol-4-yl)oxy)-4,5-dihydrothieno[3,4-g][1,2]benzothiazole-6-carboxamide] | 63 | – | – | – | 36 | – |
| 103 | 102 | COCC(=O)N(C)c1ccc(Oc2sc(C(N)=O)c3c2-c2sncc2CC3)c(C)n1 [Example 126, 8-((6-((Methoxyacetyl)(methyl)amino)-2-methylpyridin-3-yl)oxy)-4,5-dihydrothieno[3,4-g][1,2]benzothiazole-6-carboxamide] | 67 | – | – | – | – | – |
| 101 | 102 | Cc1nc(C(N)=O)ccc1Oc1sc(C(N)=O)c2c1-c1sncc1CC2 [Example 131, 8-((6-Carbamoyl-2-methylpyridin-3-yl)oxy)-4,5-dihydrothieno[3,4-g][1,2] benzothiazole-6-carboxamide] | 73 | – | – | – | – | – |
| 110 | 101 | CCC(=O)Nc1ccc(Oc2sc(C(N)=O)c3c2-c2sncc2CC3)c(C)n1 [Example 133, 8-((2-Methyl-6-(propionylamino)pyridin-3-yl)oxy)-4,5-dihydrothieno [3,4-g][1,2]benzothiazole-6-carboxamide] | 63 | – | – | – | – | – |
| 100 | 99 | CCC(=O)Nc1ccc(Oc2sc(C(N)=O)c3c2-c2sncc2CC3)cn1 [Example 134, 8-((6-(Propionylamino)pyridin-3-yl)oxy)-4,5-dihydrothieno[3,4-g][1,2] benzothiazole-6-carboxamide] | 59 | – | – | – | – | – |
| 109 | 97 | CC(=O)N(C)c1ccc(Oc2sc(C(N)=O)c3c2-c2sncc2CC3)cn1 [Example 135, 8-((6-(Acetyl(methyl)amino)pyridin-3-yl)oxy)-4,5-dihydrothieno[3,4-g][1,2] benzothiazole-6-carboxamide] | 55 | – | – | – | – | – |
| 107 | 102 | CCOC(=O)Nc1ccc(Oc2sc(C(N)=O)c3c2-c2sncc2CC3)c(C)n1 [Example 136, Ethyl (5-((6-carbamoyl-4,5-dihydrothieno[3,4-g][1,2]benzothiazol-8-yl)oxy)-6-methylpyridin-2-yl) carbamate] | 66 | – | – | – | – | – |
| 103 | 100 | COCCNC(=O)c1ccc(Oc2sc(C(N)=O)c3c2-c2sncc2CC3)cn1 [Example 138, 8-((6-((2-Methoxyethyl)carbamoyl)pyridin-3-yl)oxy)-4,5-dihydrothieno[3,4-g][1,2]benzothiazole-6-carboxamide fumaric acid (1:1)] | – | – | – | – | – | 69 |
| 103 | 100 | COCCNC(=O)c1ccc(Oc2sc(C(N)=O)c3c2-c2sncc2CC3)cn1 [Example 139, 8-((6-((2-Methoxyethyl)carbamoyl)pyridin-3-yl)oxy)-4,5-dihydrothieno[3,4-g][1,2]benzothiazole-6-carboxamide succinic acid (1:1)] | – | – | – | – | – | 71 |
